The term IC50 denotes the concentration needed to halve the response being measured. What is called half-life is the time needed for the level to fall by half in the phase considered. A lower half-life goes with fast loss.

Like-named read-outs stand apart in the source and are kept apart here.

This note sets out measurements from patent US6673769B2, “Lanthionine bridged peptides” (priority 1991, dated 2004).

One data set concerns SSTR4 receptor. The data set is described as follows: Inhibition of radioligand binding to cloned somatostatin receptor SSTR4. The note with it: for IC50: cloned receptor, radioligand binding, read-out: SSTR4 receptor binding constant IC50.
A further data set concerns the target SSTR2 receptor. The data set is described as follows: Inhibition of radioligand binding to cloned somatostatin receptor SSTR2. To be noted: for IC50: cloned receptor, radioligand binding, read-out: SSTR2 receptor binding constant IC50.
The target of another data set is T1, MVD (δ-receptor) (Mus musculus, UniProt P32300).
T1 construct: The vas is then mounted under 0.5 g tension in a 5 ml organ bath; from tissue; host or cells: mouse vas deferens (Swiss Webster)
T1 sequence (P32300 whole entry): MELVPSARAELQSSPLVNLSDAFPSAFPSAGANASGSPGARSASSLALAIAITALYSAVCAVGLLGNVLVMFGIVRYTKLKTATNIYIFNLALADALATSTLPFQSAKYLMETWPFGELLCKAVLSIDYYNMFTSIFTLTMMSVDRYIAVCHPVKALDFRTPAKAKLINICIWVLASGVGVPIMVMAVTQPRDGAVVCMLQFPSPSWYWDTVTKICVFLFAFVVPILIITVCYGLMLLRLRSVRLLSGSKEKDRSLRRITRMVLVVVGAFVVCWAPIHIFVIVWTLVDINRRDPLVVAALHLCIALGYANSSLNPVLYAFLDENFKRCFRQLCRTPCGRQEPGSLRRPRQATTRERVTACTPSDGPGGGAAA
Description: cell-based.

The nature of data set [1]: Enzymatic degradation of enkephalin analogs (half-life).
A further data set concerns the target δ receptor (Homo sapiens, UniProt P41143). The data set is described as follows: δ-Binding, replacement of 3H-naltrindole.
[2] abbreviates: inhibition of electrically evoked twitch of mouse vas deferens, read-out: MVD IC50.

Sequence of δ receptor (P41143 whole entry): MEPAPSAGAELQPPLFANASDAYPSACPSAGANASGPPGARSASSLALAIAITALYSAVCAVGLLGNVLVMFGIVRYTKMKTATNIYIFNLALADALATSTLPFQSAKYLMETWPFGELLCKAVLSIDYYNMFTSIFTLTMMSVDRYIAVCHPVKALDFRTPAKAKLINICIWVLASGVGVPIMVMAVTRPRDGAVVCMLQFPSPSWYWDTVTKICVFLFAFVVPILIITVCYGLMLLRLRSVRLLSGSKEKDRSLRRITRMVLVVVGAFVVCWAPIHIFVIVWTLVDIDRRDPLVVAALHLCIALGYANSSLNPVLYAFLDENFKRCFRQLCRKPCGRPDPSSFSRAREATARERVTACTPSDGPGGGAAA

Regarding “H-D-Phe-c[AlaLPhe-D-Trp-Lys-Thr-AlaL]-Thr-NH2”, in the data set with SSTR4 receptor, the “selectivity for SSTR4 (SSTR2/SSTR4 IC50) compared with the octapeptide alcohols” value is given as “four times” and the IC50 is 0.5 nM. The half-inhibitory concentration (IC50) at SSTR2 receptor was determined as 10 nM.

`NC(=O)[C@H]1CSC[C@@H](NC(=O)[C@@H](N)Cc2ccc(O)cc2)C(=O)NCC(=O)N[C@@H](Cc2ccccc2)C(=O)N1` [Tyr-c[D-AlaL-Gly-Phe-D-AlaL]-NH2]: the IC50 on MVD (δ-receptor) (setting [2]) is 1.67 nM.

In the case of “H-D-Phe-c[AlaLPhe-D-Trp-Lys-Thr-AlaL]-Thr-ol”, the IC50 amounted to 1 nM at SSTR4 receptor and 5 nM on SSTR2 receptor.

Take `C[C@H](N)C(=O)NCC(=O)N[C@H]1CSSC[C@@H](C(=O)O)NC(=O)[C@H](CO)NC(=O)[C@H]([C@@H](C)O)NC(=O)[C@H](Cc2ccccc2)NC(=O)[C@H]([C@@H](C)O)NC(=O)[C@H](CCCCN)NC(=O)[C@H](Cc2c[nH]c3ccccc23)NC(=O)[C@H](Cc2ccccc2)NC(=O)[C@H](Cc2ccccc2)NC(=O)[C@H](CC(N)=O)NC(=O)[C@H](CCCCN)NC1=O` [Somatostatin-14, reference compound]: the results for the IC50 at SSTR4 receptor and at SSTR2 receptor were 0.86 nM and 0.28 nM, respectively.

`NC(=O)[C@@H]1CSC[C@@H](NC(=O)[C@@H](N)Cc2ccc(O)cc2)C(=O)NCC(=O)N[C@@H](Cc2ccccc2)C(=O)N1` [Lanthionine-enkephalin] had a half-life in data set [1] of 20.4 h.

As to `NC(=O)[C@@H]1CSC[C@@H](NC(=O)[C@@H](N)Cc2ccc(O)cc2)C(=O)NCC(=O)N[C@@H](Cc2ccccc2)C(=O)N1` [Tyr-c[D-AlaL-Gly-Phe-L-AlaL]-NH2], the 50% inhibitory concentration (IC50) is 7 nM on δ receptor and 0.54 nM on MVD (δ-receptor) (setting [2]).

c[AlaL3, AlaL14]-Somatostatin-14: in the data set with SSTR2 receptor, the “affinity/potency on SSTR2, in words” value is “same binding affinity” and the IC50 came to 0.3 nM.

With “H-D-Phe-c[AlaLPhe-D-Trp-Lys-Thr-AlaL]-OH”, the IC50 at SSTR4 receptor came out at 500 nM.

Turning to Sandostatin [reference compound], the IC50 came out at 0.57 nM at SSTR4 receptor and 2.4 nM on SSTR2 receptor.

In turn, `NC(=O)[C@@H]1CSSC[C@@H](NC(=O)[C@@H](N)Cc2ccc(O)cc2)C(=O)NCC(=O)N[C@@H](Cc2ccccc2)C(=O)N1` [Disulfide-enkephalin, reference compound] gave a half-life in data set [1] of 5.53 h.

Consider `N[C@@H](Cc1ccc(O)cc1)C(=O)N[C@@H]1CSC[C@@H](C(=O)O)NC(=O)[C@H](Cc2ccccc2)NC(=O)CNC1=O` [Tyr-c[D-AlaL-Gly-Phe-L-AlaL]-OH], for which the concentration for half-maximal inhibition (IC50) at δ receptor is 1 nM; at MVD (δ-receptor) it was 0.16 nM.
